Values quoted from earlier work, collected in US7582314B2, “Compositions and methods for the management of hyperproliferative dermatological conditions” (Sami Labs Ltd., priority 2003, dated 2009).
Where two headings read alike, the source gives them in different places.

Columns and labels:
plaque psoriasis = conditions: oral supplementation; psoriasis patients
[1] = test system: damage to the skin induced by UV radiation; conditions: topical; human subjects
[2] = test system: damage to the skin induced by UV radiation; conditions: topical; experimental animals

Structure (SMILES): C[Se]CC[C@H](N)C(=O)O [selenomethionine]
- efficacy as adjuvant treatment in plaque psoriasis (plaque psoriasis): ineffective
- degree of damage to the skin induced by UV radiation [1]: reduces
- degree of damage to the skin induced by UV radiation [2]: reduces
